Test results taken from patent publication US9249102B2 (priority 2012, dated 2016).
Values belong to the compound of their own block, whether it stands above or below them.

What was measured:
[1] = tested on: anthelmintic-resistant isolate of Haemonchus contortus; assay: Method B: anthelmintic-resistant (benzimidazole-resistant) isolate of Haemonchus contortus, conditions of method A; settings: H. contortus isolate functionally resistant against benzimidazoles
[2] = Method G: permeability in the Caco-2/TC7 in vitro model; settings: human, Caco-2, pH 6.5
Cooperia oncophora = assay: Method C: Cooperia oncophora L1 larvae in vitro; settings: 96 h, read-out: inhibition of motility
[3] = tested on: microfilaria of Dirofilaria immitis; assay: Method F: microfilaria of Dirofilaria immitis, survival at 24 hours; settings: survival of microfilaria at 24 hours
Haemonchus contortus [4] = assay: Method A: Haemonchus contortus L1 larvae, microtitre plate screen; settings: 96 h, read-out: motility inhibition
Haemonchus contortus [5] = assay: Method D: Haemonchus contortus in vivo in Mongolian jirds; design: species or system Mongolian jirds (Meriones unguiculatus); settings: po, 72 h, read-out: reduction in nematode infestation

Structure (SMILES): c1ccc2[nH]c(-c3cscn3)nc2c1 [thiabendazole]
- fold resistance of the isolate [1]: 127 fold

- Papp A→B at 20 μM [2]: 13.8 ×10⁻⁶ cm/s
Structure (SMILES): O=C(CO[C@H]1CC[C@H](Nc2ccc([N+](=O)[O-])c(C(F)(F)F)c2)CC1)N1CCN(Cc2nc3cc(F)ccc3s2)CC1 [Compound 235, 1-(4-((5-fluorobenzo[d]thiazol-2-yl)methyl)piperazin-1-yl)-2-(-4-(4-nitro-3-(trifluoromethyl)phenylamino)cyclohexyloxy)ethanone]
- inhibition at 5 µg/mL (Cooperia oncophora): ≥ 90%
- EC50 [3]: < 1 µg/mL
- inhibition at 5 µg/mL (Haemonchus contortus [4]): ≥ 90%
- inhibition in vivo at 30 mg/kg (Haemonchus contortus [5]): 70 to 90%

Structure (SMILES): CN(c1ccc([N+](=O)[O-])c(C(F)(F)F)c1)[C@H]1CC[C@H](OCC(=O)N2CCN(CC3Cc4cc(F)ccc4O3)CC2)CC1 (stereo partly drawn) [Compound 261, 1-[4-(5-fluoro-2,3-dihydro-benzofuran-2-ylmethyl)-piperazin-1-yl]-2-{4-[methyl-(4-nitro-3-trifluoromethyl-phenyl)-amino]-cyclohexyloxy}-ethanone]
- Papp A→B at 20 μM [2]: 8.2 ×10⁻⁶ cm/s
- inhibition at 5 µg/mL (Cooperia oncophora): ≥ 90%
- EC50 [3]: < 0.1 µg/mL
- inhibition at 5 µg/mL (Haemonchus contortus [4]): ≥ 90%
- inhibition in vivo at 30 mg/kg (Haemonchus contortus [5]): > 90%

Structure (SMILES): O=C(CO[C@H]1CC[C@H](Nc2ccc([N+](=O)[O-])c(C(F)(F)F)c2)CC1)N1CCN(Cc2cc3cc(F)c(F)cc3o2)CC1 [Compound 325, 2-[(4-[[4-nitro-3-(trifluoromethyl)phenyl]amino]cyclohexyl)-oxy]1-[4-(5,6-difluorobenzofuran-2-ylmethyl)piperazin-1-yl]ethan-1-one]
- Papp A→B at 20 μM [2]: 9 ×10⁻⁶ cm/s
- inhibition at 5 µg/mL (Cooperia oncophora): ≥ 90%
- inhibition at 5 µg/mL (Haemonchus contortus [4]): ≥ 90%
- inhibition in vivo at 30 mg/kg (Haemonchus contortus [5]): 70 to 90%
